Reference: article PMC9329436, “Optimization of the 4-anilinoquin(az)oline scaffold as epidermal growth factor receptor (EGFR) inhibitors for chordoma utilizing a toxicology profiling assay platform” (Scientific Reports, 2022)
Where two headings read alike, the source gives them in different places.

Columns and labels:
Type in all cases: biochemical
[1] = biological target: 320 wild-type protein kinases (Homo sapiens, UniProt Q9Y6M4); conditions: singlicate
Excerpt: (§1) Table S4. Profiling of two compounds at two concentrations against 320 wild-type protein kinases; singlicate measurement; Residual activities (% of control).

[2] = biological target: 320 wild-type protein kinases (Homo sapiens, UniProt Q02750); conditions: singlicate
Excerpt: as §1

[3] = biological target: 320 wild-type protein kinases (Homo sapiens, UniProt Q00526); conditions: singlicate
Excerpt: as §1

[4] = biological target: 320 wild-type protein kinases (Homo sapiens, UniProt P00519); conditions: singlicate
Excerpt: as §1

[5] = biological target: 320 wild-type protein kinases (Homo sapiens, UniProt P21802); conditions: singlicate
Excerpt: as §1

[6] = biological target: 320 wild-type protein kinases (Homo sapiens, UniProt P42684); conditions: singlicate
Excerpt: as §1

[7] = biological target: 320 wild-type protein kinases (Homo sapiens, UniProt P06493); conditions: singlicate
Excerpt: as §1

[8] = biological target: T1, 320 wild-type protein kinases (Homo sapiens, UniProt Q8WTQ7); conditions: singlicate
T1 sequence (Q8WTQ7 1-553): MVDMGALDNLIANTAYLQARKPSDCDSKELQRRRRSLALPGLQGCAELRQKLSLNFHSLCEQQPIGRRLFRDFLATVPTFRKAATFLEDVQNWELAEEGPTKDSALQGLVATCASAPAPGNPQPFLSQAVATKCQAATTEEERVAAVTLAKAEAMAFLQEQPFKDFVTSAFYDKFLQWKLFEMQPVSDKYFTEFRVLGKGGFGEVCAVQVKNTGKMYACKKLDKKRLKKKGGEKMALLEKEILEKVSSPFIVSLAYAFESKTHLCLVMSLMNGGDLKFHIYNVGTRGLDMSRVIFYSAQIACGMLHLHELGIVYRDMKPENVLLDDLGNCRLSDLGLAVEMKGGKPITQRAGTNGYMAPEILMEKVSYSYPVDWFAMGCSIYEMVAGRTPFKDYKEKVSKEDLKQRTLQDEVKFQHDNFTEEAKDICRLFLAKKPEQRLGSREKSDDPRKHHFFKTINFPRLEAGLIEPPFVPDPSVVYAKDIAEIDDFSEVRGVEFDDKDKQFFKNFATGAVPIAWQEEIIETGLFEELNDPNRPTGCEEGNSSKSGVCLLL
Excerpt: as §1

[9] = biological target: T2, 320 wild-type protein kinases (Homo sapiens, UniProt P43403); conditions: kinase ZAP70, singlicate
T2 sequence (P43403 1-619): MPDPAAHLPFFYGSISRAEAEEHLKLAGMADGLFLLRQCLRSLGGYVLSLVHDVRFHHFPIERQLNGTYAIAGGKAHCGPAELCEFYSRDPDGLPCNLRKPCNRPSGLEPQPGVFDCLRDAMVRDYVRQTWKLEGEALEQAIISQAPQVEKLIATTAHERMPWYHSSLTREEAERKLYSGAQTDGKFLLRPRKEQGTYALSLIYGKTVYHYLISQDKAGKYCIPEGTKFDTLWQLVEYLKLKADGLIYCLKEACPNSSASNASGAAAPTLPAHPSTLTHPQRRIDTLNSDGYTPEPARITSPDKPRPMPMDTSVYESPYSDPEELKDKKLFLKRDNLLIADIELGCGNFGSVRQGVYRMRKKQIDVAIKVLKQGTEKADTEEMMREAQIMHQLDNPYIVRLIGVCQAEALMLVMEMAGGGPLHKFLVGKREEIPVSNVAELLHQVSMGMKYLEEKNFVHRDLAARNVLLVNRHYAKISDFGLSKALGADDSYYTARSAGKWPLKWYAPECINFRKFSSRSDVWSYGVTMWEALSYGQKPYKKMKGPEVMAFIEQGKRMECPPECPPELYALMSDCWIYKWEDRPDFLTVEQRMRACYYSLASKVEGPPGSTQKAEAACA
Excerpt: as §1

[10] = biological target: 320 wild-type protein kinases (Homo sapiens, UniProt P49759); conditions: singlicate
Excerpt: as §1

[11] = biological target: T3, 320 wild-type protein kinases (Homo sapiens, UniProt Q13470); conditions: kinase TNK1, singlicate
T3 sequence (Q13470 1-666): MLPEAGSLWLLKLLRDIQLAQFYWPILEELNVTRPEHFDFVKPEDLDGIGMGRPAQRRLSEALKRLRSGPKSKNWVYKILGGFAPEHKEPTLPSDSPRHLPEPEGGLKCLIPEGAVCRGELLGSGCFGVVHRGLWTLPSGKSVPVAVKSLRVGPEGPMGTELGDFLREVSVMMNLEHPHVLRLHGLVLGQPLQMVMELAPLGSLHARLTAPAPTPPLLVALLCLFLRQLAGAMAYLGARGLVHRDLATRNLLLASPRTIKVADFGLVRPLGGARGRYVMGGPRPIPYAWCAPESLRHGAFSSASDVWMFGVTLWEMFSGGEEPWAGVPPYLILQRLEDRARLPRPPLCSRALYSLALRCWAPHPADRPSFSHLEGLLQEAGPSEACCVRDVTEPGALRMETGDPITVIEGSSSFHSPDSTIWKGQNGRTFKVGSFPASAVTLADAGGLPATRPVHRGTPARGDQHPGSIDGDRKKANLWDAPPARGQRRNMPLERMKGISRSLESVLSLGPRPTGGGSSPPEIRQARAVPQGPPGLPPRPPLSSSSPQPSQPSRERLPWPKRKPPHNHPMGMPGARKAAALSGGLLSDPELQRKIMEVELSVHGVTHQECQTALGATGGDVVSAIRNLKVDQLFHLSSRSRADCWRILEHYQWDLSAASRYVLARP
Excerpt: as §1

Sequence of 320 wild-type protein kinases (Homo sapiens, UniProt Q9Y6M4) (Q9Y6M4 whole entry): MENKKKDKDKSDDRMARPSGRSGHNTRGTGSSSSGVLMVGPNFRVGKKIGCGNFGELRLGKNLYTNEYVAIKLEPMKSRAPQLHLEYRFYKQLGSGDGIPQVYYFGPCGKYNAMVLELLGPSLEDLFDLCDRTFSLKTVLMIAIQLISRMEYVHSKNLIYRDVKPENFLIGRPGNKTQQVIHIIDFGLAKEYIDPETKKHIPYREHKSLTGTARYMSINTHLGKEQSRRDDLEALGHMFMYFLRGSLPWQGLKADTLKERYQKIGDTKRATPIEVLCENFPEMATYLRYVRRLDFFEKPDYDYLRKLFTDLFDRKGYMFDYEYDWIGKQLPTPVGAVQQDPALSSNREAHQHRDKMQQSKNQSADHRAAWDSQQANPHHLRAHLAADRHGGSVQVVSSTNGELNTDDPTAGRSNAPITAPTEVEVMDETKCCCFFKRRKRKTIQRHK
Sequence of 320 wild-type protein kinases (Homo sapiens, UniProt P06493) (P06493 whole entry): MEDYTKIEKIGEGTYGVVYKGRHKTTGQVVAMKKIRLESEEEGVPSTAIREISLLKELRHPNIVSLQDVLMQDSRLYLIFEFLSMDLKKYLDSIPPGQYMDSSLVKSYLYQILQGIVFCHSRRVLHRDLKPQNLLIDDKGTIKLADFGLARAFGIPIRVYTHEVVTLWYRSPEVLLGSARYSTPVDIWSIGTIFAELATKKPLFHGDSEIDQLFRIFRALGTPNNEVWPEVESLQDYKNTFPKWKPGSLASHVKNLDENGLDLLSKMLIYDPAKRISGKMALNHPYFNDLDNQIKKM
Sequence of 320 wild-type protein kinases (Homo sapiens, UniProt Q00526) (Q00526 whole entry): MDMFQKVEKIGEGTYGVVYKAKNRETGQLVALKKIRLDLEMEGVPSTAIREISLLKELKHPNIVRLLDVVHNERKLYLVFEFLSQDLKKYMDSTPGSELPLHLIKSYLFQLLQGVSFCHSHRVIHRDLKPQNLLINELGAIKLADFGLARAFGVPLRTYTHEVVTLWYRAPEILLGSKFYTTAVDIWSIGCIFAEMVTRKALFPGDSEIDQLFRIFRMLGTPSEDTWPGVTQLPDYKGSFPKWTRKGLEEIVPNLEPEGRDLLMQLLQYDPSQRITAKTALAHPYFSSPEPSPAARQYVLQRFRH
Sequence of 320 wild-type protein kinases (Homo sapiens, UniProt Q02750) (Q02750 whole entry): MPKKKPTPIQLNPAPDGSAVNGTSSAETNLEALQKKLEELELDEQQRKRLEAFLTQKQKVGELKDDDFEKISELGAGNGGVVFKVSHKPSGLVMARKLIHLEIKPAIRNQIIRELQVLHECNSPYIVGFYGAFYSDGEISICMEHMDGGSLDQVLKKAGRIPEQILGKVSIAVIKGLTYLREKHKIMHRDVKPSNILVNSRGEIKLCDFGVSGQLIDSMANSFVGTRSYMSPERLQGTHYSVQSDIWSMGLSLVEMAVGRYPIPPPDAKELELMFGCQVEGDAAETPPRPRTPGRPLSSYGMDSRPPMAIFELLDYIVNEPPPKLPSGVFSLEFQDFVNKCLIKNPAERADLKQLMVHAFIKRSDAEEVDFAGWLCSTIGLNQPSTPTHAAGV
Sequence of 320 wild-type protein kinases (Homo sapiens, UniProt P21802) (P21802 22-821): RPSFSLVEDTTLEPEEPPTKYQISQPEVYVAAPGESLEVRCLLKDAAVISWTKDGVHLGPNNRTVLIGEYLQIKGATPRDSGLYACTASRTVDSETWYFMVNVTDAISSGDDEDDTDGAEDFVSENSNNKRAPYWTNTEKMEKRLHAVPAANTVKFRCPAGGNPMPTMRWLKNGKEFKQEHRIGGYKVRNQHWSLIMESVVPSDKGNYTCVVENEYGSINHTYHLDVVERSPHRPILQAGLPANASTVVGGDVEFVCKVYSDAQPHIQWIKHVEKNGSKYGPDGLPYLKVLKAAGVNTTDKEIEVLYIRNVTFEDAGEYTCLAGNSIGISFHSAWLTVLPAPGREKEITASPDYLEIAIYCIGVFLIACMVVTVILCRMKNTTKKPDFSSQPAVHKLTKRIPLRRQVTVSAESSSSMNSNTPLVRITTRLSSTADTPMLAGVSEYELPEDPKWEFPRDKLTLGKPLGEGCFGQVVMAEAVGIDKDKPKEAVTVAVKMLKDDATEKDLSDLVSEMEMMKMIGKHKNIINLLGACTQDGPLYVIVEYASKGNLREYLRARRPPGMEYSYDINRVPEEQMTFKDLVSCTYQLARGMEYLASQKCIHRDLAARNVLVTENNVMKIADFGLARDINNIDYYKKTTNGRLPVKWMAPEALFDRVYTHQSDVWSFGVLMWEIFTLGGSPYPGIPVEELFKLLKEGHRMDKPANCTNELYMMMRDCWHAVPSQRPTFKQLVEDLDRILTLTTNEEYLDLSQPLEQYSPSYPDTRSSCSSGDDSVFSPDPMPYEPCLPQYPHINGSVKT
Sequence of 320 wild-type protein kinases (Homo sapiens, UniProt P42684) (P42684 whole entry): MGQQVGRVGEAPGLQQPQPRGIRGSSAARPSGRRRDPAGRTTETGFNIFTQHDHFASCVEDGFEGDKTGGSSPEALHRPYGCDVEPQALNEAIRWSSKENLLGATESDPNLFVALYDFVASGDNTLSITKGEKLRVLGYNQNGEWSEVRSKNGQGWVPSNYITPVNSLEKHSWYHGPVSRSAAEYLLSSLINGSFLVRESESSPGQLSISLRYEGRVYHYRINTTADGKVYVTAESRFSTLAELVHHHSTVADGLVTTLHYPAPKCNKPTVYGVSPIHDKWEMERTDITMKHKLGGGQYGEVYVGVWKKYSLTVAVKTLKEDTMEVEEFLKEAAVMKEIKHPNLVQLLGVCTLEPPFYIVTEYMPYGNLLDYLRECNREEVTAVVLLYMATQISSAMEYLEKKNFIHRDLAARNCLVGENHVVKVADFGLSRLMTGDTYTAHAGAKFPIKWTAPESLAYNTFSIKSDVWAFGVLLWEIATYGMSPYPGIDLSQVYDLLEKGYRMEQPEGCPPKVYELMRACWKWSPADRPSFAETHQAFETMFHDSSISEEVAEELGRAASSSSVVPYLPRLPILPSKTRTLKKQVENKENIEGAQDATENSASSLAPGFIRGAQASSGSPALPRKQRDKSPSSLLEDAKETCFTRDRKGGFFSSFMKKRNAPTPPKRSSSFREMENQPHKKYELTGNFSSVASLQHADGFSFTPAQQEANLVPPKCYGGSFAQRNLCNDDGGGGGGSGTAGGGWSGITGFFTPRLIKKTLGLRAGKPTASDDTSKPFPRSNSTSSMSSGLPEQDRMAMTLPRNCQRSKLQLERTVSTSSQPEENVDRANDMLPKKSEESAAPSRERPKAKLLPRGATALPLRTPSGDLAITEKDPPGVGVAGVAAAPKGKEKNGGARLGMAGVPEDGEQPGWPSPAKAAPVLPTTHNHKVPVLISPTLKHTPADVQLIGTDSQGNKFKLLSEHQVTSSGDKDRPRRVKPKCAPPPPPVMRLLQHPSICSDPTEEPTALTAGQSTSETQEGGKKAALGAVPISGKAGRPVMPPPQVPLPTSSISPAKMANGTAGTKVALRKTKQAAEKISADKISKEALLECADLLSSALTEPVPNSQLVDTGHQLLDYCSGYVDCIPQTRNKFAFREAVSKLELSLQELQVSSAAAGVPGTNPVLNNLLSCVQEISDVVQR
Sequence of 320 wild-type protein kinases (Homo sapiens, UniProt P49759) (P49759 whole entry): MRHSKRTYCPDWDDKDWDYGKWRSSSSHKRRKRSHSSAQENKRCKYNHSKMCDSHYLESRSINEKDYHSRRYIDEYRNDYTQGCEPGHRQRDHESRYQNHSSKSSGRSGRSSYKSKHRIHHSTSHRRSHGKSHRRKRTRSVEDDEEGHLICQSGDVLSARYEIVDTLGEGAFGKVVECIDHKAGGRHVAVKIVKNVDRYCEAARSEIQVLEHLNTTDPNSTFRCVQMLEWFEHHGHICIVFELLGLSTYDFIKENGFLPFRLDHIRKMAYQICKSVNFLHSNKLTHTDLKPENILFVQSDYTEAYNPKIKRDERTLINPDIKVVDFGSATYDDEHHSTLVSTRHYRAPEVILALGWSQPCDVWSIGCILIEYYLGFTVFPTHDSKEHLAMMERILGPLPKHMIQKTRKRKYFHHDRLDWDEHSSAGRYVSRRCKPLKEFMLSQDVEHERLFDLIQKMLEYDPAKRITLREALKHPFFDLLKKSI
Sequence of 320 wild-type protein kinases (Homo sapiens, UniProt P00519) (P00519 whole entry): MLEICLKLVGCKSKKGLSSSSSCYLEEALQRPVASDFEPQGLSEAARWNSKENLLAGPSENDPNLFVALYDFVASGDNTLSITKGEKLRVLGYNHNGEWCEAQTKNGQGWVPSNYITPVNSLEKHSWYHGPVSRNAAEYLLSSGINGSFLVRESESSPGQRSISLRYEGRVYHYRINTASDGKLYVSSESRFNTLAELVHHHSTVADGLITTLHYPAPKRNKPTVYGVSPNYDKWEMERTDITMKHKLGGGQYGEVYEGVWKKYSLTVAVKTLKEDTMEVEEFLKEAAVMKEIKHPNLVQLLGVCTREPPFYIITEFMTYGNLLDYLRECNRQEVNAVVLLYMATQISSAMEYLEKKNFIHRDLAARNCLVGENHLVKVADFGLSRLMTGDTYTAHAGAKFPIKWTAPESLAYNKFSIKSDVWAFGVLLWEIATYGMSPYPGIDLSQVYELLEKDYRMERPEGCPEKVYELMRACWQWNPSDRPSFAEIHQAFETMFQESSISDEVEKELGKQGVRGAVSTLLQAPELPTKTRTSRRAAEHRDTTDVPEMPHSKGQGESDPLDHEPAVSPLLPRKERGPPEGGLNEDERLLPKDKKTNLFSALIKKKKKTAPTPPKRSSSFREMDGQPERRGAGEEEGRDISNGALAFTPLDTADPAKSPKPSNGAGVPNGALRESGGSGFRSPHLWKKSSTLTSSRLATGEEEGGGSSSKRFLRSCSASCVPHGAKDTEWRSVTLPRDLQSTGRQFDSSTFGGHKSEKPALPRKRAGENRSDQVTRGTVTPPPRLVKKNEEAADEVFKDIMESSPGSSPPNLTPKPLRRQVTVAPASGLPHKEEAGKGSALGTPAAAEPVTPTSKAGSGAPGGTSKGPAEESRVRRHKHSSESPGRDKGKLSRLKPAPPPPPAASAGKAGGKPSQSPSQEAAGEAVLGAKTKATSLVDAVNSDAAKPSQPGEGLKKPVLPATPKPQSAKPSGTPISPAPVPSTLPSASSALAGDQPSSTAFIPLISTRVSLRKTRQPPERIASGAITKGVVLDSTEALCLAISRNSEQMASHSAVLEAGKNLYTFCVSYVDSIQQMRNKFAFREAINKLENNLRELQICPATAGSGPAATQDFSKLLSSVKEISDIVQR

How did the Residual activity ([1]; CK1-gamma3, 1.0E-06 M) turn out when C#Cc1cc(Nc2ncnc3cc(I)ccc23)ccc1Cl [Compound 41] was run?
Its Residual activity is 118 % of control.

What about the Residual activity ([1]; CK1-gamma3, 1.0E-07 M) of the same compound?
The Residual activity was 121 % of control.

And the Residual activity ([2]; MEK1, 1.0E-06 M)?
Its Residual activity is 104 % of control.

And the Residual activity ([2]; MEK1, 1.0E-07 M)?
The Residual activity was 109 % of control.

And the Residual activity ([3]; CDK3/CycC, 1.0E-06 M)?
The Residual activity was 87 % of control.

And the Residual activity ([3]; CDK3/CycC, 1.0E-07 M)?
The Residual activity was 90 % of control.

And the Residual activity ([3]; CDK3/CycE1, 1.0E-06 M)?
The Residual activity was 96 % of control.

What about the Residual activity ([3]; CDK3/CycE1, 1.0E-07 M) of the same compound?
Its Residual activity is 115 % of control.

And the Residual activity ([4]; ABL1, 1.0E-06 M)?
Its Residual activity is 72 % of control.

And the Residual activity ([4]; ABL1, 1.0E-07 M)?
The Residual activity was 85 % of control.

What about the Residual activity ([5]; FGF-R2, 1.0E-06 M) of the same compound?
The Residual activity was 85 % of control.

And the Residual activity ([5]; FGF-R2, 1.0E-07 M)?
The Residual activity was 88 % of control.

And the Residual activity ([6]; ABL2, 1.0E-06 M)?
Its Residual activity is 97 % of control.

And the Residual activity ([6]; ABL2, 1.0E-07 M)?
Its Residual activity is 106 % of control.

And the Residual activity ([7]; CDK1/CycA2, 1.0E-06 M)?
The Residual activity was 77 % of control.

What about the Residual activity ([7]; CDK1/CycA2, 1.0E-07 M) of the same compound?
The Residual activity was 91 % of control.

And the Residual activity ([7]; CDK1/CycB1, 1.0E-06 M)?
The Residual activity was 79 % of control.

And the Residual activity ([7]; CDK1/CycB1, 1.0E-07 M)?
The Residual activity was 84 % of control.

And the Residual activity ([7]; CDK1/CycE1, 1.0E-06 M)?
Its Residual activity is 101 % of control.

And the Residual activity ([7]; CDK1/CycE1, 1.0E-07 M)?
Its Residual activity is 116 % of control.

What about the Residual activity ([8]; GRK7, 1.0E-06 M) of the same compound?
The Residual activity was 116 % of control.

What about the Residual activity ([8]; GRK7, 1.0E-07 M) of the same compound?
Its Residual activity is 124 % of control.

And the “Residual activity, ZAP70” value ([9]; assay conc. 1.0E-06 M)?
Its value is 103 % of control.

What about the “Residual activity, ZAP70” value ([9]; assay conc. 1.0E-07 M) of the same compound?
The value was 111 % of control.

And the Residual activity ([10]; CLK1, 1.0E-06 M)?
Its Residual activity is 89 % of control.

And the Residual activity ([10]; CLK1, 1.0E-07 M)?
The Residual activity was 89 % of control.

And the “Residual activity, TNK1” value ([11]; assay conc. 1.0E-06 M)?
The value was 112 % of control.

What about the “Residual activity, TNK1” value ([11]; assay conc. 1.0E-07 M) of the same compound?
The value was 130 % of control.

Which results are given for C#Cc1cc(Nc2ncnc3cc(OC)c(OC)cc23)ccc1Cl [Compound 45]?
Residual activity ([1]; CK1-gamma3, 1.0E-06 M): 123 % of control; Residual activity ([1]; CK1-gamma3, 1.0E-07 M): 116 % of control; Residual activity ([2]; MEK1, 1.0E-06 M): 109 % of control; Residual activity ([2]; MEK1, 1.0E-07 M): 105 % of control; Residual activity ([3]; CDK3/CycC, 1.0E-06 M): 86 % of control; Residual activity ([3]; CDK3/CycC, 1.0E-07 M): 92 % of control; Residual activity ([3]; CDK3/CycE1, 1.0E-06 M): 102 % of control; Residual activity ([3]; CDK3/CycE1, 1.0E-07 M): 117 % of control; Residual activity ([4]; ABL1, 1.0E-06 M): 59 % of control; Residual activity ([4]; ABL1, 1.0E-07 M): 100 % of control; Residual activity ([5]; FGF-R2, 1.0E-06 M): 69 % of control; Residual activity ([5]; FGF-R2, 1.0E-07 M): 87 % of control; Residual activity ([6]; ABL2, 1.0E-06 M): 68 % of control; Residual activity ([6]; ABL2, 1.0E-07 M): 96 % of control; Residual activity ([7]; CDK1/CycA2, 1.0E-06 M): 83 % of control; Residual activity ([7]; CDK1/CycA2, 1.0E-07 M): 83 % of control; Residual activity ([7]; CDK1/CycB1, 1.0E-06 M): 78 % of control; Residual activity ([7]; CDK1/CycB1, 1.0E-07 M): 89 % of control; Residual activity ([7]; CDK1/CycE1, 1.0E-06 M): 91 % of control; Residual activity ([7]; CDK1/CycE1, 1.0E-07 M): 97 % of control; Residual activity ([8]; GRK7, 1.0E-06 M): 121 % of control; Residual activity ([8]; GRK7, 1.0E-07 M): 115 % of control; Residual activity, ZAP70 ([9]; assay conc. 1.0E-06 M): 104 % of control; Residual activity, ZAP70 ([9]; assay conc. 1.0E-07 M): 100 % of control; Residual activity ([10]; CLK1, 1.0E-06 M): 79 % of control; Residual activity ([10]; CLK1, 1.0E-07 M): 102 % of control; Residual activity, TNK1 ([11]; assay conc. 1.0E-06 M): 83 % of control; Residual activity, TNK1 ([11]; assay conc. 1.0E-07 M): 117 % of control
